Assay results taken from patent publication US7585850B2 (Adenobio N.V., priority 2005, dated 2009).

Key:
[1] = system: normotensive Wistar rats; experiment: Effect of oral Adb111 (AMP complex) on blood pressure of normotensive Wistar rats and comparison with AMP; format: in vivo, rat
Procedure: The experiment was performed in 10 male Wistar rats (340 to 410 g; 5 in the treated group and 5 in the control group). Animals were maintained for two weeks of adaptation in humidity and temperature controlled room and were fed a standard diet (U.A.R, Villemoisson, France). Each animal, (control or treated) was anaesthetized with sodium pentobarbital (6%, 0.9 ml/Kg body weight). The left carotid artery was cannulated with a PE50 polyethylene catheter connected to a pressure transducer (MacLabs, ADInstruments, Hastings, UK). Blood pressure was monitored continuously and recorded. […]
(§1) The experiment is similar to example 3.

[2] = system: rats; experiment: Effects of Adb011 by the IV route on systemic arterial pressure in rats; format: in vivo, rat; conditions: 10 mg/kg IV bolus
Procedure: (§2) The experiment was performed in 10 male Wistar rats (340 to 410 g; 5 in the treated group and 5 in the control group). Animals were maintained for two weeks of adaptation in humidity and temperature controlled room and were fed a standard diet (U.A.R, Villemoisson, France). Each animal, (control or treated) was anaesthetized with sodium pentobarbital (6%, 0.9 ml/Kg body weight). The left carotid artery was cannulated with a PE50 polyethylene catheter connected to a pressure transducer (MacLabs, ADInstruments, Hastings, UK). Blood pressure was monitored continuously and recorded. Adb011 was administered orally by gavage at the dose of 50 mg/kg (in Arabic syrup 5%).
as §1
• Adb-011 (n=4): receiving IV a bolus of Adb-011 (10 mg/kg in suspension with distilled water 30 mg/ml) • Control (n=3): receiving IV (distilled water)
In the treated group, blood pressure began to decrease after 15 min of the Adb011 administration and reached a significant maximal decrease of 48 mmHg at […].

[3] = system: hypoxic rats; experiment: Effect of oral Adb011 on chronic pulmonary hypertension caused by hypoxia in rats; format: in vivo, rat
Procedure: Animals were divided in three groups: • Adb-011 chronic treatment (n=5): receiving by gavage Adb-011 (50 mg/kg in suspension with Arabic syrup, 20 mg/ml) twice a day (morning and evening) for 14 days. • Control (n=6): receiving by gavage vehicle (suspension of Arabic syrup 20 mg/kg). • Adb-011 acute treatment (n=6): receiving by gavage vehicle for 14 days and orally treated with a single dose of Adb-011 on the last day (day of surgery). Rats were placed in a chamber where air was circulated at a pressure of 380 Torr, which corresponds to an altitude of 5500 meters. The chamber was open twice a day for ˜30 minutes to treat animals and to replace food and water. On the day of surgery the animals were removed from the chamber and anesthetized with pentobarbital sodium (60 mg/kg ip). A polyethylene catheter (PE-50) was placed in the aortic arch via the left carotid artery. An introducer was advanced in the right ventricle via the right jugular vein. Adequate placement of both catheters was established by the pressure waveform. Both catheters were connected to a pressure transducer (Biopac MP30, BIOPAC Systems, Inc.). The time-lag between last dose of Adb-011 (in group 1) and blood pressure measurement was 14 hours.

[4] = system: normotensive Wistar rats; experiment: Effect of oral administration of Adb011 on blood pressure of normotensive Wistar rats; format: in vivo, rat
Procedure: as §2
Results are reported as mean±SEM of n experiments. Multiple measurement analysis was performed using ANOVA, followed by Bonferroni-Dunn test. Statistical significance was accepted for p values less than 0.05.
Blood pressure began to decrease after 30 minutes of Adb-011 administration. It reached a significant maximal decrease of −13.9 mmHg between 70 and 100 min. (with respect to vehicle values, p<0.05 ANOVA multiple measurement analysis followed by a Bonferroni-Dunn test) and returned to normal after 110-120 minutes.

[5] = in vivo; cited from earlier work
[6] = in vivo; cited from earlier work; remark: listed apart in the source
[7] = system: normotensive Wistar rats; experiment: Effect of oral and IV 330A1 on blood pressure of normotensive Wistar rats; format: in vivo, rat
Procedure: as §2, §1
• 330A1-I (n=4): receiving by gavage the product (50 mg/kg in suspension with Arabic syrup 30 mg/ml) • Control-(n=4)I: receiving by gavage Arabic syrup 30 mg/ml alone • 330A1-II: receiving the product IV (10 mg/kg in suspension with distilled water 30 mg/ml) • Control-II (n=4): receiving IV distilled water

[8] = oral administration, conclusion over doses
[9] = 50 mg/kg p.o. twice a day for 14 days, chronic hypoxia
[10] = HxC + A 15 min: single oral dose on day of surgery
[11] = HxC + A 60 min: single oral dose on day of surgery, 60 min

CC(=O)Nc1ccc(C(=O)O)cc1.CC(=O)Nc1ccc(C(=O)O)cc1.CC(=O)Nc1ccc(C(=O)O)cc1.CC(O)CN(C)C.CC(O)CN(C)C.CC(O)CN(C)C.Nc1ncnc2c1ncn2[C@@H]1O[C@H](COP(=O)(O)O)[C@@H](O)[C@H]1O [Adb111]
time after administration at which blood pressure began to decrease ([1]; 100 mg/kg by gavage): 45 min
time after which blood pressure returned to normal values ([1]; 100 mg/kg by gavage): 180 min
time after administration at which blood pressure began to decrease ([1]; 300 mg/kg by gavage): 45 min
time after which blood pressure returned to normal values ([1]; 300 mg/kg by gavage): 180 min
time after oral administration at which blood pressure lowering began [1, 8]: 45 min
time for which blood pressure was lowered [1, 8]: up to 165 min
bioavailability and efficacy compared with natural AMP ([1]; oral, comparable doses): better bioavailabity and efficacy over natural AMP

CC(=O)Nc1ccc(C(=O)O)cc1.CC(=O)Nc1ccc(C(=O)O)cc1.CC(=O)Nc1ccc(C(=O)O)cc1.CC(O)CN(C)C.CC(O)CN(C)C.CC(O)CN(C)C.Nc1ncnc2c1ncn2[C@@H]1O[C@H](CO)[C@@H](O)[C@H]1O [Adb011]
maximal decrease of blood pressure [2]: 48 mmHg
mean arterial blood pressure two hours after injection [2]: still very low two hours after injection
time after administration at which blood pressure began to decrease [2]: 15 min
time of maximal decrease of blood pressure [2]: 15 min
change of right ventricular hypertrophy [3, 9]: -75 mg
decrease of pulmonary hypertension [3, 9]: 21.5 mmHg
effect on systemic pressure [3, 9]: no effect
RVp (right ventricular pressure) ([3]; HxA: chronic treatment 50 mg/kg p.o. twice a day 14 days, measured 14 h after last dose): 53.30 ± 461 mmHg
(LV + S)w (left ventricular + septum weight) ([3]; HxA: chronic treatment 14 days): 729 ± 56
C(a − v)O2 (arterial − venous O2 difference) ([3]; HxA: chronic treatment 14 days): 8.0 ± 0.4 mL O2/dL blood
CaO2 (arterial O2 content) ([3]; HxA: chronic treatment 14 days): 29.2 ± 0.9 mL O2/dL of blood
Cardiac output ([3]; HxA: chronic treatment 14 days): 162 ± 8 mL/min/kg
CvO2 (venous O2 content) ([3]; HxA: chronic treatment 14 days): 21.2 ± 1.0 mL O2/dL of blood
HR (heart rate) ([3]; HxA: chronic treatment 14 days): 364 ± 15 beat/min
MABP (mean arterial blood pressure) ([3]; HxA: chronic treatment 14 days): 113 ± 2 mmHg
RVw (right ventricular weight) ([3]; HxA: chronic treatment 14 days): 362 ± 10 mg
SV (stroke volume) ([3]; HxA: chronic treatment 14 days): 0.45 ± 0.02 mL/kg
SVR (systemic vascular resistance) ([3]; HxA: chronic treatment 14 days): 0.70 ± 0.03
SaO2 (arterial oxygen saturation) ([3]; HxA: chronic treatment 14 days): 92 ± 1 %
VO2 (oxygen consumption) ([3]; HxA: chronic treatment 14 days): 12.81 ± 0.29 mL/min/kg
(LV + S)w (left ventricular + septum weight) [3, 10]: 675 ± 21
C(a − v)O2 (arterial − venous O2 difference) [3, 10]: 8.3 ± 0.5 mL O2/dL blood
CaO2 (arterial O2 content) [3, 10]: 27.3 ± 1.4 mL O2/dL of blood
Cardiac output [3, 10]: 164 ± 11 mL/min/kg
CvO2 (venous O2 content) [3, 10]: 19.0 ± 1.5 mL O2/dL of blood
HR (heart rate) [3, 10]: 352 ± 12 beat/min
MABP (mean arterial blood pressure) [3, 10]: 107 ± 5 mmHg
RVw (right ventricular weight) [3, 10]: 436 ± 21 mg
SV (stroke volume) [3, 10]: 0.47 ± 0.03 mL/kg
SVR (systemic vascular resistance) [3, 10]: 0.68 ± 0.06
SaO2 (arterial oxygen saturation) [3, 10]: 82 ± 4%
VO2 (oxygen consumption) [3, 10]: 13.38 ± 0.61 mL/min/kg
RVp (right ventricular pressure) ([3]; HxC + A 15 min: single oral dose on day of surgery, 15 min): 75.17 ± 0.95 mmHg
HR (heart rate) [3, 11]: 329 ± 4 beat/min
MABP (mean arterial blood pressure) [3, 11]: 92 ± 5 mmHg
RVp (right ventricular pressure) [3, 11]: 52.83 ± 3.83 mmHg
reduction of pulmonary artery pressure ([3]; acute single oral dose, rats with fixed pulmonary hypertension): −22 mmHg
time after which blood pressure returned to normal ([4]; 50 mg/kg p.o.): 110 to 120 min
time after administration at which blood pressure began to decrease ([4]; 50 mg/kg p.o. by gavage, anaesthetized rats): 30 min
maximal decrease of blood pressure ([4]; 50 mg/kg p.o., with respect to vehicle values, p<0.05): −13.9 mmHg

Nc1ncnc2c1ncn2[C@@H]1O[C@H](COP(=O)(O)O)[C@@H](O)[C@H]1O [AMP, adenosine monophosphate, reference compound]
gastrointestinal bioavailability [5]: poor
time after administration at which blood pressure began to decrease ([1]; 100 mg/kg by gavage): 45 min
time after which blood pressure returned to normal values ([1]; 100 mg/kg by gavage): 120 min
time after administration at which blood pressure began to decrease ([1]; 300 mg/kg by gavage): 45 min
time after which blood pressure returned to normal values ([1]; 300 mg/kg by gavage): 120 min
time for which blood pressure was lowered [1, 8]: 60 min

Nc1ncnc2c1ncn2[C@@H]1O[C@H](CO)[C@@H](O)[C@H]1O [adenosine]
plasma half-life [6]: less than 5 seconds

CC(=O)Nc1ccc(C(=O)O)cc1.CC(O)CN(C)C [330A1]
effect on mean arterial blood pressure ([7]; 10 mg/kg IV): minor effect
effect on mean arterial blood pressure ([7]; 50 mg/kg by gavage): minor effect
